Measurements published in ChEMBL document CHEMBL1128049, “5-cyano-1-[3-(N-methylpyrrolidin-2R-ylmethyl)indol-5-yl] benzimidazole (CP-161,242): A potent, centrally active 5-HT1D receptor agonist and benzodiazepine partial agonist” (Bioorg Med Chem Lett, 1995).

What was measured:
[1] = molecular target: 5-hydroxytryptamine receptor 1D (Cavia porcellus, UniProt Q60484); experiment: Compound was tested for the inhibition of forskolin-stimulated adenylate cyclase at 5-hydroxytryptamine 1D receptor in guinea pig substantia nigra
Sequence of 5-hydroxytryptamine receptor 1D (Q60484 whole entry): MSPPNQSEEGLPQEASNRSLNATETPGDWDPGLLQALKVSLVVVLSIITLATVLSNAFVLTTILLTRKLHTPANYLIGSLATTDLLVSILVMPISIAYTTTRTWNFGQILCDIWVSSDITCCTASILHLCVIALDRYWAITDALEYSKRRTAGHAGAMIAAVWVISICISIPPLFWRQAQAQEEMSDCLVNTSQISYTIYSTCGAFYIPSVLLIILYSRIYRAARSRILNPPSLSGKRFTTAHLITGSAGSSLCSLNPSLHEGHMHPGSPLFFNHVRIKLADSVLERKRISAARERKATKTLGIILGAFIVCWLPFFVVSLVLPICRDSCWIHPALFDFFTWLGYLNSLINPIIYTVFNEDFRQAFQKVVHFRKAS

[2] = molecular target: GABA-A receptor; anion channel; experiment: In vitro displacement of [3H]flunitrazepam from GABA-A central benzodiazepine receptor of guinea pig cerebellum; type: tissue-based, Cavia porcellus
[3] = molecular target: T1, 5-hydroxytryptamine receptor 1A (Rattus norvegicus, UniProt P19327); experiment: Tested in vitro for receptor binding affinity to 5-hydroxytryptamine 1A receptor in rat cortex using [3H]OH-DPAT radioligand
T1 sequence (P19327 whole entry): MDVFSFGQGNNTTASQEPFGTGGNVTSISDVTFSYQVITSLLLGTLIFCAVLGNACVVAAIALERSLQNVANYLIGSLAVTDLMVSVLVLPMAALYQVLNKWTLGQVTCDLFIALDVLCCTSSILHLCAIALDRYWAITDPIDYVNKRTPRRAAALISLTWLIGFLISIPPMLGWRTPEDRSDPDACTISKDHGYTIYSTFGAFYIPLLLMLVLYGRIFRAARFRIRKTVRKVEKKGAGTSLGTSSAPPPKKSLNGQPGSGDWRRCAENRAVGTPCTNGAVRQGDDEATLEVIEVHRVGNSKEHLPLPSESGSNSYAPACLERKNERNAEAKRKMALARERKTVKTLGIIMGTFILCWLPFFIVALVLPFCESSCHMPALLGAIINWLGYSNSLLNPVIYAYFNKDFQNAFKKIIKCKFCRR

Row | Compound | EC50 [1] [nM] | IC50 [2] [nM] | IC50 [3] [nM]
1 | CN1CCC[C@@H]1Cc1c[nH]c2ccc(-n3cnc4cc(C#N)ccc43)cc12 | 0.042 | 3.3 | 20
2 | CN(C)CCc1c[nH]c2ccc(-n3cnc4cccnc43)cc12 | 14 | 89 | 210
3 | NCCc1c[nH]c2ccc(O)cc12 [SEROTONIN] | 8.5 |  | 
